Measured values: patent US20240277717A1, “APPLICATION OF GANCICLOVIR IN PREPAPRATION OF MEDICINE FOR TREATING ALLERGIC RHINITIS” (Union Hospital, Tongji Medical College, Huazhong University …, priority 2023, published 2024)
Entries after “also recorded” stand apart in the source; their conditions may differ.

Tests used:
nasal scraping cells = assay: Transcriptome sequencing (RNA-seq) of nasal scraping cells; type: in vivo, human
Description: (§1) The scraped mucosal epithelial cells are placed in a TRIzol™ reagent (Invitrogen™) and stored in liquid nitrogen for processing. Library preparation and high-throughput sequencing, data analysis, ribonucleic acid (RNA) sequence and deoxyribonucleic acid (DNA) virus sequence enrichment analysis are performed by Seqhealth Technology Co., Ltd. (China; wuhan). Sample quality analysis is performed by Nanodrop™ OneC spectrophotometer to detect expression at A260 and A280. Qualified samples are finally quantified by QubitR®3.0 fluorometer and Qubit™ RNA broad-range (BR) Assay kits. The original data is first filtered by Trimomatic (Version 0.36). Counting by FeatureCounts, and then calculate reads per kilobase of exon model per million mapped reads (RPKM). Differentially expressed genes between groups are identified using an edgeR package (Version 3.12.1). In analysis, P value<0.05 and fold change (FC) higher than 2 are considered to be significant differences in gene expression between groups.

[1] = tested on: EB virus, human-cytomegalovirus, HSV 1, 2, 3, 6, 7, 8; assay: DNA virus sequence enrichment analysis of nasal scraping cells; type: in vivo; settings: GCV effective group
Description: as §1

[2] = tested on: Eosinophil cationic protein (ECP); assay: ECP in the nasal secretions by ELISA; type: in vivo, human
Description: (§2) Two pieces of 1.0 centimeter (cm)×1.5 cm sterile medical sponge are gently placed into the patient's bilateral nasal cavity for 1-5 minutes (min). After the sponge adsorbs enough the nasal secretions, the sponge is gently removed and put into a 2 milliliters (mL) syringe. The nasal secretions are squeezed out and collected in a 1.5 mL centrifuge tube, centrifuged at 3000 revolutions per minute (rpm) for 5 min, and the supernatant is taken and placed in a refrigerator at −80° C. for testing. Eosinophil cationic protein (ECP) in the nasal secretions is detected by enzyme-linked immunosorbent assay (ELISA). The ECP-ELISA kit is from Zhongmin Taike Biotechnology Co., Ltd. Cytokine levels of interleukin (IL)-2, IL-4, IL-5, IL-6, IL-13, IL-17A, IL-28A, IL-33, interferon (IFN)-α, IFN-β, IFN-γ, IFN-λ, and Eotaxin in the nasal secretions are measured by using Luminex (R&D; LXSAHM-13).

[3] = tested on: peripheral blood mononuclear cells (PBMCs); assay: GCV medicine test of the PBMCs in vitro (flow cytometry); type: cell-based, human; settings: 400 μM GCV, 48 hours
Description: The peripheral blood of patients with the intractable AR is collected. The peripheral blood mononuclear cells (PBMCs) are isolated within 8 hours using a lymphocyte separation medium (MP biomedicals) and suspended in Roswell Park Memorial Institute (RPMI) 1640 medium (Gibco™) containing 10% heat-inactivated fetal bovine serum (Gibco™, Grand Island) and 1% penicillin and streptomycin (Gibco™) at a density of 1×10^6/mL. Three wells are set for each sample, including: a non treated well (also referred to as NT well), a well adding 1 microliter (μL) dimethyl sulfoxide (DMSO; Solarbio®) (also referred to as DMSO well), and a well adding 400 micromoles per liter (μM) of the GCV (diluted with DMSO, Selleck) (also referred to as GCV well). The PBMCs are cultured in a 24-well cell culture plate (Corning®, NY) under different stimulations in a 5% CO2, 37° C. cell incubator. According to the instructions of Leukocyte Activation Cocktail with BD GolgiPlug™ (BD Bioscience), the PBMCs are added to a cell culture medium 4-6 hours before dyeing to improve the dyeing effect of intracellular cytokines. After 48 hours of cell culture, the cell solution is collected and dyed with anti-human fixable viability stain 510 (FVS-BV510), brilliant violet 605 anti-human cluster of differentiation 4 antibody (CD4-BV605), and […] isothiocyanate isomer I (CD8-FITC), and then dyed with interleukin-4-brilliant violet™ 421 dyes (IL-4-BV421), interleukin-17A-phycoerythrin (IL-17A-PE), human interferon-gamma-PE-cyanine7 dye (IFNγ-PE-Cy7), and FOXP3-BB700 (all from BD Bioscience) after breaking the nucleus with a fixed nuclear breaker (eBioscience™). BD LSRFortessa™ X-20 (BD Biosciences, USA) and FlowJo™ software (FlowJo, Ashland, OR USA) are used for analysis.

[4] = tested on: IL-2, IL-4, IL-5, IL-6, IL-13, IL-17A, IL-28A, IL-33, IFN-α, IFN-β, IFN-γ, IFN-λ, Eotaxin in the nasal secretions; assay: Cytokine levels in the nasal secretions measured by Luminex; type: in vivo, human; settings: for IL-2 in nasal secretions, after treatment: mean ± SD
Description: as §2

[5] = tested on: eosinophils in nasal secretions; assay: Nasal secretion smears, percentage of eosinophils in inflammatory cells; type: in vivo, human
From the text: The patients blow their nose (both sides), or gently rotate a glass rod at a front end of the patients' nasal vestibule to obtain the nasal secretions, avoiding rubbing the mucosal surface as much as possible. The obtained nasal secretions are evenly and lightly coated on slides, and a coverage area of the nasal secretion smear is required to exceed ⅔ of the slides. After natural air drying, the slides are dyed with Wright-Giemsa stain (Baso Diagnostics Inc. Zhuhai; China). After dyeing, cells are counted under an optical microscope. A percentage of eosinophils in inflammatory cells under 10×100 times microscope is observed, and an average value of 5 visual fields is taken as a result.

[6] = GCV effective group n=6, before vs after, P<0.05 and FC>2
[7] = GCV effective group n=6, nasal scraping cells
[8] = GCV effective group and GCV ineffective group
[9] = PBMCs of GCV effective and ineffective groups

Compound: Nc1nc(O)c2ncn(COC(CO)CO)c2n1 [GCV, Ganciclovir]
- genes down-regulated after GCV treatment (nasal scraping cells; [6]): 160 genes
- genes up-regulated after GCV treatment (nasal scraping cells; [6]): 25 genes
- CXCL9 expression after GCV treatment (nasal scraping cells; [7]): up-regulated
- CXCL10 expression after GCV treatment (nasal scraping cells; [7]): up-regulated
- MUC5B expression after GCV treatment (nasal scraping cells; [7]): down-regulated
- enrichment of genes of EB virus, human-cytomegalovirus, HSV 1, 2, 3, 6, 7, 8 before and after GCV treatment (FIG. 3B) [1]: no statistical difference
- ECP in nasal secretions, change after GCV treatment [2, 8]: no significant change
- ECP in nasal secretions, after treatment ([2]; GCV effective group, before 42.38 ± 41.04): 20.18 ± 18.42 µg/mL
- ECP in nasal secretions, after treatment ([2]; GCV ineffective group, before 82 ± 18.01): 45.993 ± 37.12 µg/mL
- percentage of CD4+IFNγ+ cells, change [3, 9]: no significant change
- percentage of CD4+IL4+ cells, change [3, 9]: no significant change
- percentage of CD4+IL17A+ cells, change [3, 9]: no significant change
- percentage of CD8+IFNγ+ cells/CD4+, change [3, 9]: no significant change
- percentage of CD4+FOXP3+ cells/CD4+ cells, GCV well vs DMSO well ([3]; PBMCs of GCV effective group n=26, p<0.001): significantly increased; also recorded: significantly higher
- percentage of CD4+FOXP3+ cells/CD4+ cells, GCV well vs DMSO well ([3]; PBMCs of GCV ineffective group n=14, p<0.05): significantly lower
- all cytokines and inflammatory factors in nasal secretions, change after GCV treatment [4, 8]: do not change
- IFN-β in nasal secretions, after treatment ([4]; GCV effective group, before 26.49 ± 26.34): 38.86 ± 54.29 pg/mL
- IFN-α in nasal secretions, after treatment ([4]; GCV effective group, before 31.09 ± 28.65): 32.77 ± 23.83 pg/mL
- IL-6 in nasal secretions, after treatment ([4]; GCV effective group, before 39.10 ± 34.59): 30.44 ± 27.04 pg/mL
- IL-17A in nasal secretions, after treatment ([4]; GCV effective group, before 55.38 ± 27.4): 58.92 ± 43.93 pg/mL
- IL-4 in nasal secretions, after treatment ([4]; GCV effective group, before 109.67 ± 23.95): 105.32 ± 25.44 pg/mL
- IFN-γ in nasal secretions, after treatment ([4]; GCV effective group, before 181.83 ± 266.06): 120.24 ± 116.93 pg/mL
- IL-5 in nasal secretions, after treatment ([4]; GCV effective group, before 197.49 ± 388.67): 134.24 ± 172.57 pg/mL
- Eotaxin in nasal secretions, after treatment ([4]; GCV effective group, before 206.5 ± 212.85): 153.51 ± 101.87 pg/mL
- IL-33 in nasal secretions, after treatment ([4]; GCV effective group, before 277.39 ± 303.34): 293.62 ± 396.68 pg/mL
- IFN-λ in nasal secretions, after treatment ([4]; GCV effective group, before 313.99 ± 194.7): 331.23 ± 237.77 pg/mL
- IL-13 in nasal secretions, after treatment ([4]; GCV effective group, before 455.81 ± 190.16): 397.80 ± 116.61 pg/mL
- IL-28A in nasal secretions, after treatment ([4]; GCV effective group, before 718.08 ± 263.12): 740.68 ± 214.99 pg/mL
- IL-2 in nasal secretions, after treatment ([4]; GCV effective group, before 148.69 ± 43.59): 132.85 ± 40.51 pg/mL
- IFN-β in nasal secretions, after treatment ([4]; GCV ineffective group, before 19.58 ± 12.05): 17.86 ± 8.57 pg/mL
- Eotaxin in nasal secretions, after treatment ([4]; GCV ineffective group, before 36.79 ± 25.41): 50.35 ± 47.92 pg/mL
- IL-6 in nasal secretions, after treatment ([4]; GCV ineffective group, before 49.62 ± 10.4): 65.53 ± 44.86 pg/mL
- IL-17A in nasal secretions, after treatment ([4]; GCV ineffective group, before 59.88 ± 40.6): 48.13 ± 18.73 pg/mL
- IFN-γ in nasal secretions, after treatment ([4]; GCV ineffective group, before 106.77 ± 51.92): 80.25 ± 44.49 pg/mL
- IFN-α in nasal secretions, after treatment ([4]; GCV ineffective group, before 129.83 ± 170.32): 57.51 ± 49.01 pg/mL
- IL-4 in nasal secretions, after treatment ([4]; GCV ineffective group, before 151.81 ± 71.34): 116.44 ± 53.74 pg/mL
- IL-5 in nasal secretions, after treatment ([4]; GCV ineffective group, before 218.52 ± 189.78): 70.26 ± 57.39 pg/mL
- IFN-λ in nasal secretions, after treatment ([4]; GCV ineffective group, before 371.83 ± 248.73): 363.86 ± 203.72 pg/mL
- IL-13 in nasal secretions, after treatment ([4]; GCV ineffective group, before 382.32 ± 104.87): 282.34 ± 55.29 pg/mL
- IL-28A in nasal secretions, after treatment ([4]; GCV ineffective group, before 392.09 ± 218.69): 447.41 ± 202.35 pg/mL
- IL-33 in nasal secretions, after treatment ([4]; GCV ineffective group, before 583.28 ± 515.20): 436.61 ± 500.63 pg/mL
- IL-2 in nasal secretions, after treatment ([4]; GCV ineffective group, before 139.75 ± 59.26): 125.13 ± 58.88 pg/mL
- percentage of eosinophils in nasal secretions, change after GCV treatment [5, 8]: no significant change
- Nasal secretion eosinophils, after treatment ([5]; GCV effective group, before 90.54 ± 6.24): 93.23 ± 11.99%
- Nasal secretion eosinophils, after treatment ([5]; GCV ineffective group, before 56 ± 46.30): 54 ± 44.54%
